In EP0449195B1, “Aminobenzene compounds, their production and use” (Takeda Chemical Industries, Ltd., priority 1990, dated 1991):

Test system: N18-RE-105 cells
Experiment: Protective activity to glutamic acid-induced necrocytosis in N18-RE-105 cells (cell lethal ratio from LDH activity)
Type: cell-based
Conditions: glutamic acid (10 mM), cultivation 24 hours after addition, LDH activity in cells and medium, read-out: IC₅₀ (minimum concentrations for depressing cell lethal ratio to not more than 50%), Effect on glutamic acid cytotoxicity (cell lethal ratio)
Method: When a high concentration of glutamic acid (1 to 10 mM) is added to N18-RE-105 cells, neocrocytosis caused by oxidative stress due to inhibition of incorporation of cystine into cells is observed [Neuron 2, 1547 (1989); J. Pharmacol. Exp. Ther. 250, 1132 (1989)].
Activity of various compounds against this glutamic acid-induced necrocytosis was studied. About 10,000 cells were inoculated into a culture dish of 35 mm in diameter containing DMEM medium (1 ml). After cultivation for 24 hours, glutamic acid and a compound to be tested were added. After the medium was changed to DMEM mediums containing the compound in various concentrations and then glutamic acid (10 mM) was added. After addition of glutamic acid, cultivation was further continued for 24 hours. Then, surviving cells were collected and […] activity contained in the cells and medium was determined. A cell lethal ratio (%) was calculated according to the following formula: Cell lethal ratio (%) =(LDH activity in medium)/(LDH activity in cells + LDH activity in medium)x 100 [formula] Regarding the typical compounds of the present invention, minimum concentrations for depressing cell lethal ratio to not more than 50% (IC₅₀) is shown in Table 9.

Row | Substance | IC50
1 | 4-[4-(1-phenyldecanylamino)phenyloxy]piperidine [Example 52] | 10 nM
2 | 4-(4-octylaminophenyloxy)piperidine [Example 45] | 5.5 nM
